In patent US8492394B2, “(3-aryl-piperazin-1-yl), (2-aryl-morpholin-4-yl) and (2-aryl-thiomorpholin-4-yl) derivatives of 6,7-dialkoxy-quinazoline, 6,7-dialkoxyphtalazine and 6,7-dialkoxyisoquinoline as PDE10A enzyme inhibitors” (H. Lundbeck A/S, priority 2006, dated 2013):

System: rats
Assay: not given
Conditions: alone; cited from earlier work

Row | SMILES | catalepsy on its own
1 | COc1ccc(Cc2nccc3cc(OC)c(OC)cc23)cc1OC [Papaverin] | did not cause catalepsy on its own

Same assay, conditions: with the D2 receptor antagonist haloperidol; cited from earlier work

Row | SMILES | cataleptic effect of haloperidol
2 | COc1ccc(Cc2nccc3cc(OC)c(OC)cc23)cc1OC [Papaverin] | potentiated the cataleptic effect

System: rats
Assay: not given
Conditions: cited from earlier work

Row | SMILES | hyperactivity induced by PCP
3 | COc1ccc(Cc2nccc3cc(OC)c(OC)cc23)cc1OC [Papaverin] | reduced hyperactivity

System: rats
Assay: not given
Conditions: cited from earlier work
Remark: another data set of the same source

Row | SMILES | reduction of amphetamine induced hyperactivity
4 | COc1ccc(Cc2nccc3cc(OC)c(OC)cc23)cc1OC [Papaverin] | insignificant

Molecular target: PDE10A enzyme (Homo sapiens (Human), UniProt Q9Y233)
Sequence (Q9Y233 716-1055): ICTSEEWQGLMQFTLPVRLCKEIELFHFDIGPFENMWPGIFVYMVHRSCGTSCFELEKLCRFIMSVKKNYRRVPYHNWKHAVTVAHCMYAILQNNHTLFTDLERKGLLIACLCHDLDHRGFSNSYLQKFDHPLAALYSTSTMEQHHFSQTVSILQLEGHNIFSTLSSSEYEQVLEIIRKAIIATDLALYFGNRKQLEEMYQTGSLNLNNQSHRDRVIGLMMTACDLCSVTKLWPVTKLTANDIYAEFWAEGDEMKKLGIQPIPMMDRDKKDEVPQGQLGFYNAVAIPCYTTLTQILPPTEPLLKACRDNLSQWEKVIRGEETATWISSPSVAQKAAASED
Assay: PDE10A inhibition assay
Format: biochemical
Conditions: tritium labeled cAMP 5 nM, SPA; read-out: PDE10 IC50
Protocol: Active PDE10A enzyme is prepared in a number of ways for use in PDE assays (Loughney, K. et al. Gene 1999, 234, 109-117; Fujishige, K. et al. Eur J. Biochem. 1999, 266, 1118-1127 and Soderling, S. et al. Proc. Natl. Acad. Sci. 1999, 96, 7071-7076). PDE10A can be expressed as full-length proteins or as truncated proteins, as long as they express the catalytic domain. PDE10A can be prepared in different cell types, for example insect cells or E. coli. An example of a method to obtain catalytically active PDE10A is as follows: The catalytic domain of human PDE10A (amino acids 440-779 from the sequence with accession number NP 006652) is amplified from total human brain total RNA by standard RT-PCR and is cloned into the BamH1 and Xho 1 sites of the pET28a vector (Novagen). Expression in coli is performed according to standard protocols. Briefly, the expression plasmids are transformed into the BL21 (DE3) E. coli strain, and 50 mL cultures inoculated with the cells allowed to grow to an OD600 of 0.4-0.6 before protein expression is induced with 0.5 mM IPTG. Following induction, the cells are incubated overnight at room temperature, after which the cells are collected by centrifugation. Cells expressing PDE10A are resuspended in 12 mL (50 mM TRIS-HCl-pH8.0, 1 mM MgCl2 and protease inhibitors). The cells are lysed by sonication, and after all cells are lysed, TritonX100 is added according to Novagen protocols.
PDE10A assays have been described previously (Loughney, K. et al. Gene 1999, 234, 109-117; Fujishige, K. et al. Eur J Biochem. 1999, 266, 1118-1127 and Soderling, S. et al. Proc. Natl. Acad. Sci. 1999, 96, 7071-7076). PDE10A assays could for example can be performed as follows: PDE10A assays are performed in 60 uL samples containing a fixed amount of the relevant PDE enzyme (sufficient to convert 20-25% of the cyclic nucleotide substrate), a buffer (50 mM HEPES7.6; 10 mM MgCl2; 0.02% Tween20), 0.1 mg/ml BSA, 225 pCi of ^3H-labelled cyclic nucleotide substrate, tritium labeled cAMP to a final concentration of 5 nM and varying amounts of inhibitors. Reactions are initiated by addition of the cyclic nucleotide substrate, and reactions are allowed to proceed for one hr at room temperature before being terminated through mixing with 15 uL 8 mg/mL yttrium silicate SPA beads (Amersham). The beads are allowed to settle for one hr in the dark before the plates are counted in a Wallac 1450 Microbeta counter. The measured signal can be converted to activity relative to an uninhibited control (100%) and IC50 values can be calculated using the Xlfit extension to EXCEL.

Row | SMILES | IC50
5 | COc1cccc(C2CN(c3ncnc4cc(OC)c(OC)cc34)CCN2)c1 (centres unmarked) [Compound 2, 6,7-Dimethoxy-4-(3-(3-methoxyphenyl)-piperazin-1-yl)-quinazoline] | 33 nM
6 | COc1cc2ncnc(N3CCNC(c4cc(OC)c(OC)c(OC)c4)C3)c2cc1OC (centres unmarked) [Compound 8, 4-[3-(3,4,5-trimethoxyphenyl)-piperazin-1-yl]-6,7-dimethoxy-quinazoline] | 180 nM
7 | COc1cc2ncnc(N3CCN[C@H](c4ccccc4)C3)c2cc1OC [Compound 6, 6,7-Dimethoxy-4-((R)-3-phenyl-piperazin-1-yl)-quinazoline] | 65 nM
8 | COc1cccc([C@H]2CN(c3ncnc4cc(OC)c(OC)cc34)CCN2)c1 [Compound 5, 6,7-Dimethoxy-4-((S)-3-(3-methoxyphenyl)-piperazin-1-yl)-quinazoline] | 14 nM
9 | COc1cc2ncnc(N3CCSC(c4ccccc4)C3)c2cc1OC (centres unmarked) [Compound 1, 6,7-Dimethoxy-4-(2-phenyl-thiomorpholin-4-yl)-quinazoline] | 89 nM
10 | COc1cc2ncnc(N3CCOC(c4ccc(Cl)cc4)C3)c2cc1OC (centres unmarked) [Compound 11, 6,7-Dimethoxy-4-(2-(4-chlorophenyl)-morpholin-4-yl)-quinazoline] | 260 nM
11 | COc1cc2ncnc(N3CCOC(c4ccc(C)cc4)C3)c2cc1OC (centres unmarked) [Compound 3, 6,7-Dimethoxy-4-(2-(4-methylphenyl)-morpholin-4-yl)-quinazoline] | 79 nM
12 | COc1cc2ncnc(N3CCN[C@@H](c4ccccc4)C3)c2cc1OC [Compound 7, 6,7-Dimethoxy-4-((S)-3-phenyl-piperazin-1-yl)-quinazoline] | 90 nM
13 | COc1cc2ncnc(N3CCNC(c4ccccc4OC)C3)c2cc1OC (centres unmarked) [Compound 9, 4-[3-(2-methoxyphenyl)-piperazin-1-yl]-6,7-dimethoxy-quinazoline] | 110 nM
14 | COc1cc2ncnc(N3CCOC(c4ccc(F)cc4)C3)c2cc1OC (centres unmarked) [Compound 10, 6,7-Dimethoxy-4-(2-(4-fluorophenyl)-morpholin-4-yl)-quinazoline] | 200 nM
15 | COc1cccc([C@@H]2CN(c3ncnc4cc(OC)c(OC)cc34)CCN2)c1 [Compound 4, 6,7-Dimethoxy-4-((R)-3-(3-methoxyphenyl)-piperazin-1-yl)-quinazoline] | 600 nM

Results, then the compound that gave them:

Row | IC50 | SMILES
16 | 35 nM | COc1cc2ncnc(N3CCNC(c4ccc5c(c4)OCO5)C3)c2cc1OC (centres unmarked) [Compound 15, 4-[3-(3,4-methylenedioxyphenyl)-piperazin-1-yl]-6,7-dimethoxy-quinazoline]
17 | 62 nM | COc1cc2ncnc(N3CCNC(c4ccc(N(C)C)cc4)C3)c2cc1OC (centres unmarked) [Compound 14, 4-[3-(4-dimethylaminophenyl)-piperazin-1-yl]-6,7-dimethoxy-quinazoline]
18 | 660 nM | COc1cc2ncnc(N3CCOC(c4ccc(C(F)(F)F)cc4)C3)c2cc1OC (centres unmarked) [Compound 12, 6,7-Dimethoxy-4-(2-(4-trifluomethylphenyl)-morpholin-4-yl)-quinazoline]
19 | 190 nM | COc1cc2ncnc(N3CCOC(c4ccccc4Cl)C3)c2cc1OC (centres unmarked) [Compound 13, 6,7-Dimethoxy-4-(2-(2-chlorophenyl)-morpholin-4-yl)-quinazoline]
20 | 170 nM | COc1cc2ncnc(N3CCNC(c4cc(Cl)ccc4Cl)C3)c2cc1OC (centres unmarked) [Compound 16, 4-[3-(2,5-dichlorophenyl)-piperazin-1-yl]-6,7-dimethoxy-quinazoline]
